In article PMC11211886 (Frontiers in Pharmacology, 2024):
Several values for one entry are separate records, joined by “and”; a condition that tells them apart may be missing. Equal values may be shown once. Read-outs that look alike come from different tables or passages of the source.

How the values were obtained:
[1] = tested on: plasma proteins; experiment: Plasma protein binding (RED), mouse plasma; type: in vitro ADME
Description: (§1) The plate containing plasma and buffer was equilibrated for 6 h in a 37°C water shaking bath. After incubation, aliquots of buffer and plasma (20 µL) on both sides were collected and precipitated using organic solvents. […] The post-dialysis recovery of amdizalisib was also measured.

[2] = tested on: plasma proteins; experiment: Plasma protein binding (RED), dog plasma; type: in vitro ADME
Description: as §1

[3] = Metabolic stability in rat liver microsomes; type: in vitro ADME; settings: for CLint scaled at 1 µM: pH 7.4, Predicted CL int, iv vivo
Description: FMO was deactivated by heating liver microsomes at 45°C for 5 min. […] (1) metabolic clearance is the major mechanism of clearance; (2) liver is the major organ of clearance; and (3) oxidation is the major metabolic pathway. CLint,in vitro=k / Cmicrosomes , Scaled CLint,in vivo=CLint,in vitro×microsomes yield×liver weight, where Cmicrosomes means the experimental protein concentration (0.5 mg/mL) in the incubation system.

[4] = molecular target: T1, CYP1A2 (Homo sapiens, UniProt P05177); experiment: Reversible CYP inhibition in HLM, CYP1A2 (phenacetin); type: in vitro ADME; settings: for enzyme activity remaining: CYP1A2, HLM
T1 construct: tissue Life Technologies (Durham, NC, USA); host or cells: human liver microsomes
T1 sequence (P05177 1-516): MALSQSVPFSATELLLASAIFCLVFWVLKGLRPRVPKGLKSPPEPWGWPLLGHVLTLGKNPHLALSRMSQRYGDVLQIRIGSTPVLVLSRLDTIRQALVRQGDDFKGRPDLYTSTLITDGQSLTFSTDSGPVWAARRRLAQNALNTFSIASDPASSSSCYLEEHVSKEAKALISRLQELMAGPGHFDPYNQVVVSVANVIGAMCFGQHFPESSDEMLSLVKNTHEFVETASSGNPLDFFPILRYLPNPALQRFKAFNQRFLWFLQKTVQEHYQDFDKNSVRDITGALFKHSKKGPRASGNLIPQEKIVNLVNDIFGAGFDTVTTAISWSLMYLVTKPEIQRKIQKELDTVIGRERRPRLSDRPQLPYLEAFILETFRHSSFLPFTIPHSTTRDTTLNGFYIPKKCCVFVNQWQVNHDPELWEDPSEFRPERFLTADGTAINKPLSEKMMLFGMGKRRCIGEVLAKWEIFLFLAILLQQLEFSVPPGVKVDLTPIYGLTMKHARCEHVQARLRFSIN
Description: (§2) The markers used to determine the activities of CYP isoforms were phenacetin O-deethylation for CYP1A2 (probe substrate: 50 µM phenacetin), bupropion hydroxylation for CYP2B6 (probe substrate: 70 µM bupropion), paclitaxel 6α-hydroxylation for CYP2C8 (probe substrate: 10 µM paclitaxel), diclofenac 4′-hydroxylation for CYP2C9 (probe substrate: 5 µM diclofenac), S-(+)-mephenytoin 4′-hydroxylation for CYP2C19 (probe substrate: 20 µM S-(+)-mephenytoin), dextromethorphan O-demethylation for CYP2D6 (probe substrate: 6 µM dextromethorphan), chlorzoxazone 6′-hydroxylation for CYP2E1 (probe substrate: 70 µM chlorzoxazone), and testosterone 6β-hydroxylation and midazolam 1′-hydroxylation for CYP3A4/5 (probe substrate: 45 µM testosterone and 5 µM midazolam). […] Alpha-naphthoflavone (0.04 µM), 2-phenyl-2-(1-piperidinyl)propane (5 µM), quercetin (1 µM), sulfaphenazole (0.5 µM), ticlopidine (4 µM), quinidine (0.2 µM), diethyldithiocarbamate (20 µM), and ketoconazole (0.05 µM) were used as positive inhibitors of CYP1A2, 2B6, 2C8, 2C9, 2C19, 2D6, 2E1, and 3A4, respectively. The vehicle control was prepared in the same composition as inhibitor solutions but free of inhibitors. The concentrations of probe substrates were close to Km values that were determined in-house and within the range recommended by the FDA ([Huang et al., 2007]). Reaction mixtures were incubated at 37°C for 5, 20, or 30 min, depending on the probe substrates of CYP isoforms. The reactions were terminated by adding cold acetonitrile containing IS, and the terminated incubation mixtures were centrifuged at 3,000 g for 10 min before LC-MS/MS analysis.

[5] = molecular target: T2, CYP2C19 (Homo sapiens, UniProt P33261); experiment: Reversible CYP inhibition in HLM, CYP2C19 (S-mephenytoin); type: in vitro ADME; settings: for enzyme activity remaining: CYP2C19, HLM
T2 construct: tissue Life Technologies (Durham, NC, USA); host or cells: human liver microsomes
T2 sequence (P33261 whole entry): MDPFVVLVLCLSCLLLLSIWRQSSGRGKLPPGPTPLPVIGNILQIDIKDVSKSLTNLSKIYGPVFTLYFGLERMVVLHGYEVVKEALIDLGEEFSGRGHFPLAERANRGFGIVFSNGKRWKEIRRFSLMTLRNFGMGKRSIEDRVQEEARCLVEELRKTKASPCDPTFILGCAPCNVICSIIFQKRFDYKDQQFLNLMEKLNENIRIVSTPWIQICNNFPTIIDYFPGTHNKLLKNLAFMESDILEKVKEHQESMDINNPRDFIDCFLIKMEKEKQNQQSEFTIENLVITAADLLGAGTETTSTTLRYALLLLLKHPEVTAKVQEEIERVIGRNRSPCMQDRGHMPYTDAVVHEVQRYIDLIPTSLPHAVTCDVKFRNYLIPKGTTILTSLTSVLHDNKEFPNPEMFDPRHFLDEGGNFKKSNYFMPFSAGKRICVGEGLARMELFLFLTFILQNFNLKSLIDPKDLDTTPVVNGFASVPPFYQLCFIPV
Description: as §2

[6] = tested on: CYP1A2; experiment: CYP induction in human hepatocytes, CYP1A2 enzyme activity
Description: […] […] […] Enzyme activity for each CYP isoform was reported as a fold change over vehicle control and the percent of positive control (detailed calculation in Supplementary 1.1). Hepatocytes were harvested with a lysis buffer from RNeasy 96 Kit (Qiagen Inc., Germantown, MD, USA) to isolate RNA, which was analyzed by real-time quantitative polymerase chain reaction (RT-PCR). […] Emax (the maximal observed induction) and EC50 (the concentration that supports half-maximal induction) were estimated by non-linear regression of fold increase in CYP mRNA expression versus concentration plots.
The fold of vehicle control and the percent of positive control were calculated with the formulas below:
Fold of vehicle control = CYPs activity of test compound (or positive control) treated sample / CYPs activity of vehicle control treated sample
% of positive control = [(fold change in treated sample)-1] / [(fold change in positive control)-1] × 100
Based on the enzyme activity, a minimum of 2-fold increase compared to vehicle control for the positive control and ≥40% of the positive control for the test article was considered as the cutoff for a positive signal in in vitro induction assay.

C[C@H](Nc1ncnc(N)c1C#N)c1cc2ncc(Cl)n2nc1-c1ccccc1 [Amdizalisib]
Binding fraction to plasma proteins, Mouse ([1]; 1 µM): 91.5 ± 1.01%
Binding fraction to plasma proteins, Mouse ([1]; mouse, 6 h, 0.1 µM, pH 7.4): 91.1 ± 0.95%
Binding fraction to plasma proteins, Mouse ([1]; mouse, 6 h, 20 µM, pH 7.4): 91.3 ± 0.89%
Binding fraction to plasma proteins, Dog ([2]; 0.1 µM): 87.7 ± 5.15%
Binding fraction to plasma proteins, Dog ([2]; 1 µM): 89.1 ± 0.83%
Binding fraction to plasma proteins, Dog ([2]; 20 µM): 88.8 ± 0.69%
Predicted CL sys ([3]; female rat liver microsomes, normal): 10.7 mL/min/kg
CLint scaled at 1 µM ([3]; female, rat, microsomes): 13.3 mL/min/kg
half-life at 1 µM ([3]; female, rat, microsomes, pH 7.4, in vitro t1/2): 187 min
CLint scaled at 1 µM ([3]; male, rat, microsomes): 65.9 mL/min/kg
half-life at 1 µM ([3]; male, rat, microsomes, pH 7.4, in vitro t1/2): 37.9 min
half-life at 1 µM ([3]; pH 7.4, male rat liver microsomes, FMO deactivation, read-out: in vitro t1/2): 41.7 min
IC50 [4]: > 50 µM
enzyme activity remaining ([4]; 0.08 μM): 104% and 96.1%
enzyme activity remaining ([4]; 0.4 μM): 102% and 99.1%
enzyme activity remaining ([4]; 2 μM): 94.1% and 95.9%
enzyme activity remaining ([4]; 10 μM): 97.6% and 90.1%
enzyme activity remaining ([4]; 50 μM): 99.1% and 99.6%
enzyme activity remaining ([5]; 0.08 μM): 97.1% and 111%
enzyme activity remaining ([5]; 0.4 μM): 105%
enzyme activity remaining ([5]; 0.4 μM, listed as amdizalisib): 99.5%
enzyme activity remaining ([5]; 2 μM): 102% and 98.0%
enzyme activity remaining ([5]; 10 μM): 96.6% and 88.1%
enzyme activity remaining ([5]; 50 μM): 68.6% and 65.9%
IC50 ([5]; HLM, reversible, without pre-incubation): > 50 µM
Enzyme activity Percent of PC (%) ([6]; CYP1A2, donor seven, 1 µM): 1.00%
Enzyme activity Percent of PC (%) ([6]; CYP1A2, donor seven, 3 µM): -12.5%
Enzyme activity Percent of PC (%) ([6]; CYP1A2, donor seven, 10 µM): 16.5%
Enzyme activity Percent of PC (%) ([6]; CYP1A2, donor seven, 20 µM): 9.00%
Enzyme activity Percent of PC (%) ([6]; CYP1A2, donor seven, 30 µM): 16.6%
Enzyme activity Percent of PC (%) ([6]; CYP1A2, donor six, 1 µM): 2.40%
Enzyme activity Percent of PC (%) ([6]; CYP1A2, donor six, 3 µM): 3.90%
Enzyme activity Percent of PC (%) ([6]; CYP1A2, donor six, 10 µM): 7.60%
Enzyme activity Percent of PC (%) ([6]; CYP1A2, donor six, 20 µM): 14.9%
Enzyme activity Percent of PC (%) ([6]; CYP1A2, donor six, 30 µM): 7.30%
Enzyme activity Percent of PC (%) ([6]; CYP1A2, donor two, 1 µM): 1.50%
Enzyme activity Percent of PC (%) ([6]; CYP1A2, donor two, 3 µM): 0.30%
Enzyme activity Percent of PC (%) ([6]; CYP1A2, donor two, 10 µM): 7.30%
Enzyme activity Percent of PC (%) ([6]; CYP1A2, donor two, 20 µM): 8.90%
Enzyme activity Percent of PC (%) ([6]; CYP1A2, donor two, 30 µM): 14.6%
induction of CYP1A2 enzyme activity ([6]; up to 30.0 µM, all three donors): not considered an inducer
